In US8222275B2, “Biarylcarboxyarylamides as vanilloid-1 receptor modulators” (Pharmeste S.R.L., priority 2006, dated 2012):

Assays:
[1] = molecular target: T1, TRPV1 expressed in rat spinal cord (Rattus norvegicus, UniProt O35433); assay: Radioligand binding assay, [3H]-RTX, rat spinal cord membranes
T1 construct: TRPV1 expressed in rat spinal cord; from tissue; host or cells: rat (Sprague-Dawley) spinal cord membranes
Description: Radioligand Binding Assay
Male Sprague-Dawley rats with body weight between 250 to 350 g at the time for testing were used. For binding assays rats were sacrificed by decapitation under anesthesia and the spinal cord was removed and disrupted using a Polytron tissue homogenizer in ice cold buffer containing 5 mM KCl, 5.8 mM NaCl, 0.75 mM CaCl2, 2 mM MgCl2, 320 mM sucrose, 10 mM Hepes, pH 8.6.^5 The homogenized tissue was centrifuged at 1000×g for 10 min at 4° C. and the supernatant was centrifuged again at 35000×g for 30 min at 4° C. (Beckman Avanti J25). The pellet was resuspended in the same buffer as described above and used in binding experiments. In saturation experiments, 150 μg protein/sample from membrane suspensions were incubated with [^3H]-Resiniferatoxin ([^3H]-RTX) (0.003-3 nM) in the assay buffer containing 0.25 mg/ml fatty acid-free bovine serum albumin at 37° C. for 60 min. […]
Non specific binding was evaluated in the presence of 1 μM RTX. […] The tip of the microcentrifuge tube containing the pellet was cut off and the radioactivity was determined by scintillation counting (Packard 2500 TR). Protein concentration was determined according to a Bio-Rad method with bovine serum albumin as a standard reference (Bradford, 1976). Saturation and competition studies were analyzed with the Ligand program.^6

[2] = system: capsaicin-induced tactile allodynia; assay: Capsaicin-induced secondary allodynia in rat; format: in vivo; details: 30 μmol/kg oral 2 hours prior to capsaicin (20 nmols/50 μl/paw), evaluated 90 min after challenge
Description: Capsaicin-Induced Secondary Allodynia in Rat
Capsaicin (20 nmols/50 μl/paw) was injected in the plantar surface of the glabrous skin of the right paw of rats anesthetized with diethyl ether (Chaplan et al., 1994). Compound V394 was orally administrated (30 μmol/kg) 2 hours prior to capsaicin injection. Tactile allodynia was evaluated 90 min after capsaicin challenge.

[3] = molecular target: T2, TRPV1 expressing dorsal root ganglia neurons (Rattus norvegicus, UniProt O35433); assay: Ca2+ fluorescence measurements in cultured rat dorsal root ganglia neurones; format: cell-based; details: 0.1 μM capsaicin, mean and 95% fiducial limits, read-out: IC50 for inhibition of capsaicin-evoked [Ca2+]i mobilization
T2 construct: Dorsal root ganglia were removed and placed in cold phosphate buffered solution; endogenous in cells; host or cells: primary cultured rat dorsal root ganglia neurons
Description: Ca^2+ Fluorescence Measurements in Cultured Rat Dorsal Root Ganglia Neurones
Adults rats were terminally anaesthetized and decapitated. Dorsal root ganglia were removed and placed in cold phosphate buffered solution (PBS) before being transferred to collagenase (10 mg/ml), trypsin (5 mg/ml) and DNAse (1 mg/ml) for 35 min at 37° C. The ganglia, placed in cold DMEM supplemented with 10% fetal bovine serum, 2 mM L-glutamine, 100 U/ml penicillin and 100 μg/ml streptomycin, were dissociated in single cells by several passages through a series of syringe needles (23 G down to 25 G). The medium and the ganglia were filtered to remove debris, topped up with 8 ml of DMEM medium and centrifuged (200×g for 5 min). The final cell pellet was re-suspended in DMEM medium [supplemented with 100 ng/ml mouse Nerve Growth Factor (mouse-NGF-7S) and cytosine-β-D-arabinofuranoside free base (ARA-C) 2.5 μM]. […] Fura-2-AM-ester was excited at […] to indicate relative [Ca^2+]i changes by the F340/F380 ratio recorded with a dynamic image analysis system (Laboratory Automation 2.0, RCS, Florence, Italy) and the cells were allowed (at least 10 min) to attain a stable fluorescence before beginning the experiment. […]

T1 sequence (O35433 whole entry): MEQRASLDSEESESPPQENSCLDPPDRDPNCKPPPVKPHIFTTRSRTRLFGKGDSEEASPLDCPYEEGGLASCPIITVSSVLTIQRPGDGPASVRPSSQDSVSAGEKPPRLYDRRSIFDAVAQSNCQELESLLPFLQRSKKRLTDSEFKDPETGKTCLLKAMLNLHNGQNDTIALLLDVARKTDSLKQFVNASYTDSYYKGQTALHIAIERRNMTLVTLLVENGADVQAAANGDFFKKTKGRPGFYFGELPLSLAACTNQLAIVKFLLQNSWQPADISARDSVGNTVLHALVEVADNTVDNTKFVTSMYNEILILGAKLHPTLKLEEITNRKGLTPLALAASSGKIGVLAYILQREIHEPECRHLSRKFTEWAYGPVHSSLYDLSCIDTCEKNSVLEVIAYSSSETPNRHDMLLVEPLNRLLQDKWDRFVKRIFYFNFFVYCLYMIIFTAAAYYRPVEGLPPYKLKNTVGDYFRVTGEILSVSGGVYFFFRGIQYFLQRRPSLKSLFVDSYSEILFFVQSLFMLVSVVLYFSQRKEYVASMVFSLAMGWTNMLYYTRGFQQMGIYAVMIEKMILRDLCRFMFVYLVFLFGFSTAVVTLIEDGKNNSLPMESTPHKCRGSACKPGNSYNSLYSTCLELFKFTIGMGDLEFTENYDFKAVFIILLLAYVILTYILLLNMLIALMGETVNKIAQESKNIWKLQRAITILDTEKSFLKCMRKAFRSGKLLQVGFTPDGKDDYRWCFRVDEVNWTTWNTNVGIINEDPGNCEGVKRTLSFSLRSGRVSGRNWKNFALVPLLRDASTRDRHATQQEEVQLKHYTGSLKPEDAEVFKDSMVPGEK
T2 sequence (O35433 whole entry): as above

Row | melting point | Ki ([1]; [3H]RTX 0.4 nM, 37° C. 60 min, 95% fiducial limits in brackets, read-out: Ki value, competition binding of [3H]-RTX) | IC50 [3] | Compound | preventive effect against the pro-allodinic effect of capsaicin [2] | Kd ([1]; saturation experiments, [3H]-RTX 0.003-3 nM, read-out: KD value, saturation curve of [3H]-RTX)
1 | 258 °C | 15 nM | 0.83 nM | O=C(Nc1ccc(Cl)cc1)c1ccc(-c2cccc3cnccc23)nc1 [V394, N-(4-chlorophenyl)-6-(isoquinolin-5-yl)pyridine-3-carboxamide] | 55% | 
2 |  |  |  | C=C(C)[C@]12C[C@@H](C)[C@@]34O[C@](Cc5ccccc5)(O[C@@H]1[C@@H]3C=C(COC(=O)Cc1ccc(O)c(OC)c1)C[C@]1(O)C(=O)C(C)=C[C@@H]41)O2 [[^3H]-RTX, [^3H]-Resiniferatoxin, reference compound] |  | 0.21 nM
